Results: patent US9493727B2 (priority 2010, dated 2016)
Several values for one entry are separate records, joined by “and”; a condition that tells them apart may be missing. Identical values can stand only once.

Legend:
[1] = format: physicochemical

Compound: C[N+](C)([O-])CCCNC(=O)CCCCCCC/C=C/CCCCCCCC(=O)NCCC[N+](C)(C)[O-] [Mix-29, C18 DiDMAPA DiAO]
- Adjuvant 1 h, emulsion stability, mL separation: 0 mL
- Anionic 1 h, emulsion stability, mL separation: 0 mL
- Nonionic 1 h, emulsion stability, mL separation: 0 mL
- Adjuvant 24 h, emulsion stability, mL separation: 0 mL
- Anionic 24 h, emulsion stability, mL separation: 0 mL

Compound: CCCC(CCCCCCCC(=O)NCCC[N+](C)(C)[O-])S(=O)(=O)[O-].[Na+] (centres unmarked) [Sample C12-21, C12 DMAPA AO Sulfonate]
- Adjuvant 1 h, emulsion stability, mL separation: 0 mL
- Anionic 1 h, emulsion stability, mL separation: 0 mL
- Adjuvant 24 h, emulsion stability, mL separation: 0 mL
- Anionic 24 h, emulsion stability, mL separation: 0 mL

Compound: C16 DMAPA Sulfonate AO [Sample C16-12]
- Adjuvant 1 h, emulsion stability, mL separation: 0 mL
- Anionic 1 h, emulsion stability, mL separation: 0 mL
- Nonionic 1 h, emulsion stability, mL separation: 0.4 mL
- Adjuvant 24 h, emulsion stability, mL separation: 0 mL
- Anionic 24 h, emulsion stability, mL separation: 0 mL
- Nonionic 24 h, emulsion stability, mL separation: 0.5 mL

Compound: CCCCCCCC(CCCCCCCC(=O)NCCCN(C)C)S(=O)(=O)[O-].[Na+] (centres unmarked) [Sample C16-11, C16-DMAPA Sulfonate]
- % Separation 1 h (C = cream) [1]: 3.1 C % and 2.8 C %
- % Separation 24 h (C = cream) ([1]; 24 h): 4 C % and 3.6 C %

Compound: CN(C)CCCNC(=O)CCCCCCC/C=C/CCCCCCCC(=O)NCCCN(C)C [Mix-26, C18 DiDMAPA Amide]
- Anionic 1 h, emulsion stability, mL separation: 0 mL
- Anionic 24 h, emulsion stability, mL separation: 0 mL

Compound: C=CCCCCCCCC(=O)NCCC[N+](C)(C)[O-] [Sample C10-20, C10 DMAPA AO]
- Adjuvant 1 h, emulsion stability, mL separation: 0 mL
- Anionic 1 h, emulsion stability, mL separation: 0 mL
- Nonionic 1 h, emulsion stability, mL separation: 1 mL
- Adjuvant 24 h, emulsion stability, mL separation: 0 mL
- Anionic 24 h, emulsion stability, mL separation: 0 mL
- Nonionic 24 h, emulsion stability, mL separation: 1 mL

Compound: CCCC(CCCCCCCC(=O)NCCCN(C)C)S(=O)(=O)[O-].[Na+] (centres unmarked) [Sample C12-42, C12 DMAPA Sulfonate]
- % Separation 1 h (C = cream) [1]: 3 C %
- % Separation 24 h (C = cream) ([1]; 24 h): 3.1 C % and 3.3 C %

Compound: CN(C)CCCNC(=O)CCCCCCCCC(CCCCCCCC(=O)NCCCN(C)C)S(=O)(=O)[O-].[Na+] (centres unmarked) [Sample C18-68, C18 diDMAPA Amide Sulfonate]
- Adjuvant 1 h, emulsion stability, mL separation: 0 mL
- Anionic 1 h, emulsion stability, mL separation: 0 mL
- Adjuvant 24 h, emulsion stability, mL separation: 0 mL
- Anionic 24 h, emulsion stability, mL separation: 0 mL

Compound: C[N+](C)([O-])CCCNC(=O)CCCCCCCCC(CCCCCCCC(=O)NCCC[N+](C)(C)[O-])S(=O)(=O)[O-].[Na+] (centres unmarked) [Sample C18-30, C18 DiDMAPA DiAO Sulfonate]
- % Separation 1 h (C = cream) [1]: 3.9 C % and 3.1 C %
- % Separation 24 h (C = cream) ([1]; 24 h): 3.5 C, 0.5 O % and 3.6 C %
- % Separation 24 h (O = oil separated) ([1]; 24 h): 3.5 C, 0.5 O %
- Adjuvant 1 h, emulsion stability, mL separation: 0 mL
- Anionic 1 h, emulsion stability, mL separation: 0 mL
- Adjuvant 24 h, emulsion stability, mL separation: 0 mL
- Anionic 24 h, emulsion stability, mL separation: 0 mL
